“Also recorded” adds a separate entry of the source.
How the values were obtained:
[1] = Detection of singlet oxygen (ADPA chemical method, methylene blue reference); assay type: physicochemical; conditions: H2O, 20 μM, 630 nm, 50 mW, 20 min
Description: Singlet oxygen (^1O2) quantum-yield measurements were conducted by a chemical method. The disodium salt of 9.10-anthracenedipropionic acid (ADPA) was used as singlet oxygen detection reagent with methylene blue used as a reference (Φt=0.53). In this experiment, ADPA (0.1 μmol) was added to the H2O solution of ExBox^4+⊃DPP (20 μM) with a laser irradiation (630 nm, 50 mW) for 20 min, followed by quantification of ^1O2 by the absorbance intensity change (UV-3600 Shimadzu spectrophotometer) at 380 nm of ADPA. The calculation of ^1O2 quantum yield is based on the equality ΦΔ=(ΔAs/[…])Φr. ΔAs is the absorption change of detected photosensitizer, ΔAr is the absorption change of referenced photosensitizer and Φ^r is the quantum yield of singlet oxygen of referenced photosensitizer (methylene blue).
(§1) ADPA (0.1 μmol) was added to the H2O solution of DPPH2^+ (20 μM) with a laser irradiation (630 nm, 50 mW) for 20 min, followed by quantification of the ^1O2 by the absorbance intensity change (UV-3600 Shimadzu spectrophotometer) at 380 nm of ADPA. The calculation of the ^1O2 quantum yield is based on the equality ΦΔ=(ΔAs/ΔAr)Φr where ΔAs is the absorption change of detected photosensitizer, ΔAr is the absorption change of referenced photosensitizer and Φr is the quantum yield of singlet oxygen of referenced photosensitizer (methylene blue). Measured ^1O2 quantum yield of DPPH2^2+ is 0.38 in H2O.
as §1, with “acetone” for “H2O”, “DPP” for “DPPH2^+”, “DPP” for “DPPH2^2+”, “0.43” for “0.38”, “acetone.” for “H2O.”

A2780 cells [2] = experiment: In vitro PDT efficacy, MTT assay after visible light irradiation; assay type: cell-based, human
Description: A2780 cells (human ovarian cancer cell line) and MCF-7 cells (human breast adenocarcinoma cell line) obtained from Sigma-Aldrich and American Type Culture Collection (ATCC, Rockville, MD, USA), respectively were utilized for cell culture experiments. These cells were cultured in Dulbecco's Modified Eagle's Medium (DMEM) supplemented with 10% fetal bovine serum (FBS), penicillin (100 IU/mL) and streptomycin (100 μg/mL) at 37° C. in the presence of air (95%) and CO2 (5%).
A2780 or MCF-7 cells (2×10^5 cells/mL, 100 μL) were seeded in each well of a black 96-well plate. Stock solution of ExBox^4+⊃DPP in PBS (1 mM, 10 μL) was added to each well to achieve working concentrations and incubated for 12 h. After incubation, wells were washed with PBS, added with 100 μL of DMEM and immediately irradiated with visible light using Max-303 Xenon Light Source (385-740 nm, Asahi Spectra) at different light intensities (5-50 mW) for 1 to 15 min. Following irradiation, cells were incubated overnight and then added with MTT (5 mg/mL in PBS, 10 μL). After 4 h incubation with MTT, media from each well was pipetted out, formazan crystals deposited on the plate were dissolved in 200 μL of Me2SO, and the absorbance of each well was measured using a microplate reader at 560 nm. All the samples were analyzed in quadruplicates.
The percentage cell viability was calculated using the following formula: % cell viability=(OD of treated sample/OD of untreated sample)*100.

A2780 cells [3] = experiment: Live cell confocal microscopy, cellular uptake and co-localization; assay type: cell-based, human
Description: (§2) A2780 cells (1×10^5 cells/mL, 300 μL) were plated in each well of an 8-well μ-slide (ibidi cell focus) and cultured overnight. PBS solution of ExBox^4+⊃DPP was added to each well and incubated for predetermined time points. For cellular co-localization studies, cells were washed with phenol free DMEM and stained with LysoTracker green (lysosome stain, 1:1000 dilution) or MitoSpy™ Green FM (mitochondria stain, 1:2000 dilution) or NucBlue™ Live ReadyProbes™ Reagent (nuclei stain, 1 drop). For the live-dead assay, cells were incubated with PBS solution of ExBox^4+⊃DPP irradiated for 10 min at […] light intensity, incubated overnight, and stained with Calcein AM (2 μM) and Ethidium homodimer-1 (4 μM). Plated cells were imaged within a humidified chamber using a 63× oil-immersion objective on a SP5 Leica Confocal Microscope using HyD detectors and lasers.

A2780 cells [4] = experiment: Cellular uptake studies by flow cytometry (MFI); assay type: cell-based, human; conditions: 10 μM, 30 min to 12 h
Description: A2780 cells (5×10^5 cells/mL, 200 μL) were seeded in each well of a 48-well plate and treated with 10 μM PBS solution of ExBox^4+⊃DPP for 30 min, 1 h, 2 h, 6 h, and 12 h. Cells were washed with PBS, trypsinized, and incubated with 50 μL of 1:100 Zombie Aqua fixable cell viability dye for 15 min at 4° C. After incubation, cells were washed with 600 μL PBS, spun at 400 ref for 5 min, and the supernatant was discarded. Cells were then suspended in 100 μL of 2% paraformaldehyde prior to being analyzed using a BD Fortessa flow cytometer. Cells were first gated for singlet events using FSC-A vs. FSC-H, after which debris was excluded used FSC-A vs. SSC-A. Cells gated as Zombie Aqua low were considered live cells, which were then analyzed for their median fluorescence intensity (MFI) in the PE-Cy5 channel for ExBox^4+⊃DPP fluorescence, representing the amount of ExBox^4+⊃DPP taken up by each cell.

A2780 cells [5] = experiment: Calcein-AM/Ethidium homodimer-1 live-dead assay; assay type: cell-based, human; conditions: 10 μM
Description: as §2

C1=Cc2nc1cc1ccc([nH]1)c(-c1ccccc1)c1nc(cc3ccc([nH]3)c2-c2ccccc2)C=C1.c1cc2ccc1C[n+]1ccc(cc1)-c1ccc(cc1)-c1cc[n+](cc1)Cc1ccc(cc1)C[n+]1ccc(cc1)-c1ccc(cc1)-c1cc[n+](cc1)C2 [ExBox^4+⊃DPP]
singlet oxygen generation upon photoexcitation [1]: did not generate any singlet oxygen; also recorded: ^1O2 was not generated
killing of A2780 cells (A2780 cells [2]; 10 μM, 10 min visible light irradiation, 0.078 and 0.156 J cm^−2): > 95%
irradiation time to kill >90% A2780 cells (A2780 cells [2]; 0.078 J cm^−2 light dose, 5 μM): 10 min
killing of A2780 cells at other concentrations (A2780 cells [2]; 0.1, 0.05 and 0.01 μM, 10 min irradiation, 0.078 and 0.156 J cm^−2): less efficient
irradiation time to kill >90% of cells (A2780 cells [2]; 0.156 J cm^−2 light dose, 10 μM): 2 min
effect on cell viability (MTT) (A2780 cells [2]; 1.25 and 0.625 μM, light doses 0.078 and 0.156 J cm^−2): almost no effect on cell viability
A2780 cell-death (MTT) (A2780 cells [2]; 2.5, 5 and 10 μM, light doses 0.078 and 0.156 J cm^−2): > 90%
efficacy at light dose 0.032 J cm^−2 (MTT) (A2780 cells [2]; light dose 0.032 J cm^−2): efficacious only at 5 and 10 μM concentrations
effect on cell viability (MTT) (A2780 cells [2]; light dose, same concentrations): no effect on cell viability
cell injury under continuous irradiation (real-time confocal) (A2780 cells [3]; 5 min continuous irradiation, 25 mW): showed blebs on their surface
lysosomal co-localization (lysotracker) (A2780 cells [3]; 1 h incubation): no lysosomal co-localization
mitochondrial internalization (mitospy) (A2780 cells [3]; 12 h incubation, 10 μM): no mitochondrial internalization
lysosomal co-localization (lysotracker) (A2780 cells [3]; incubation time up to 12 h): co-localization of DPP with the green fluorescence of lysotracker was detected
lowest concentration traceable as punctate inside cells (A2780 cells [3]; red laser excitation, 12 h incubation): 0.1
uptake and DPP fluorescence signal (MFI) (A2780 cells [4]): time-dependent increase
live-dead staining (A2780 cells [5]; 0.156 J cm^−2 light dose for 10 min): red fluorescence
live-dead staining (A2780 cells [5]; dark conditions): bright green fluorescence

Source: US12433870B2, “Supramolecular photoprotection of a photosensitizer” (Northwestern University, priority 2019, dated 2025)
